Laboratory results as given in US11987588B2, “Modulators of the beta-3 adrenergic receptor useful for the treatment or prevention of heart failure and disorders related thereto” (Arena Pharmaceuticals, Inc., priority 2017, dated 2024).

The molecules below were run against Beta-3 Adrenergic Receptor (Homo sapiens (Human), UniProt P13945) (assay: Homogeneous Time-Resolved Fluorescence (HTRF) cAMP antagonist assay, IC50 determination). Conditions: CHO-K1 cells stably expressing recombinant receptor, isoproterenol at EC90.
Assay type: cell-based
In short: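 CHO-K1 cells stably expressing receptor, 1500 cells/well, preincubated briefly with 10-point 5-fold compound series (top final typically 10 or 100 μM) in PBS with 1 mM IBMX, then challenged with isoproterenol at EC90 for 1 h at room temperature. cAMP read by HTRF against on-plate standard curve; IC50 from dose-response.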

Chain of Beta-3 Adrenergic Receptor (P13945 whole entry, species assumed): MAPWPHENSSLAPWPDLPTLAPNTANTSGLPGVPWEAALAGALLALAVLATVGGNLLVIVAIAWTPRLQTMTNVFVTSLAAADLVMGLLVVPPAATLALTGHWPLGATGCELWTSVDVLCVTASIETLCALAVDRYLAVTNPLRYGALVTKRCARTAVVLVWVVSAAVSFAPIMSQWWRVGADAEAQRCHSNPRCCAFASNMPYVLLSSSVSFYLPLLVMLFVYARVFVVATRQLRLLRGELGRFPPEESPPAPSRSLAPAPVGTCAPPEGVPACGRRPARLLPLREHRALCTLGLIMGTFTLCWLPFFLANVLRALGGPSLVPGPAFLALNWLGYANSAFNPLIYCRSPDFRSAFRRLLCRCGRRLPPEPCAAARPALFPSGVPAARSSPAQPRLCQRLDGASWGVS

Q: CCn1cc(S(=O)(=O)N2CCC3(CC2)C[C@@H](NC[C@H](O)COc2cccc(S(=O)(=O)NC)c2)CO3)c(=O)c2cc(F)ccc21 [Compound 536, 3-((S)-3-((R)-8-(1-ethyl-6-fluoro-4-oxo-1,4-dihydroquinolin-3-ylsulfonyl)-1-oxa-8-azaspiro[4.5]decan-3-ylamino)-2-hydroxypropoxy)-N-methylbenzenesulfonamide] was tested. Which IC50 did it give?
A: Its IC50 is 166 nM.

Q: CNS(=O)(=O)c1cccc(OC[C@@H](O)CN[C@@H]2COC3(CCN(S(=O)(=O)c4cccc(-c5ccc(CN)cc5)c4OC)CC3)C2)c1 [Compound 448, 3-((S)-3-((S)-8-(4′-(aminomethyl)-2-methoxybiphenyl-3-ylsulfonyl)-1-oxa-8-azaspiro[4.5]decan-3-ylamino)-2-hydroxypropoxy)-N-methylbenzenesulfonamide] was tested. Which IC50 did it give?
A: Its IC50 is 32 nM.

Q: For CN1CCOc2ncc(S(=O)(=O)N3CCC4(CC3)C[C@@H](NC[C@H](O)COc3cccc(S(N)(=O)=O)c3)CO4)cc21 [Compound 458, 3-((S)-2-hydroxy-3-((R)-8-(1-methyl-2,3-dihydro-1H-pyrido[2,3-b][1,4]oxazin-7-ylsulfonyl)-1-oxa-8-azaspiro[4.5]decan-3-ylamino)propoxy)benzenesulfonamide], which IC50 is on record?
A: The IC50 was 45.7 nM.

Q: With Cn1cc(S(=O)(=O)N2CCC3(CC2)C[C@@H](NC[C@H](O)COc2cccc(S(N)(=O)=O)c2)CO3)c(=O)c2ccccc21 [Compound 549, 3-((S)-2-hydroxy-3-((R)-8-(1-methyl-4-oxo-1,4-dihydroquinolin-3-ylsulfonyl)-1-oxa-8-azaspiro[4.5]decan-3-ylamino)propoxy)benzenesulfonamide] as the molecule, how does the IC50 read?
A: Its IC50 is 140 nM.

Q: Which IC50 does the source give for CNS(=O)(=O)c1cccc(OC[C@@H](O)CNC2COC3(CCN(S(=O)(=O)c4ccc(C(=O)O)cc4)CC3)C2)c1 (stereo partly drawn) [Compound 40, 4-(3-((S)-2-hydroxy-3-(3-(N-methylsulfamoyl)phenoxy)propylamino)-1-oxa-8-azaspiro[4.5]decan-8-ylsulfonyl)benzoic acid] here?
A: Its IC50 is 577 nM.

Q: Which IC50 does the source give for CONS(=O)(=O)c1cccc(OC[C@@H](O)CNC2COC3(CCN(S(=O)(=O)c4ccc5ccccc5c4)CC3)C2)c1 (stereo partly drawn) [Compound 11, 3-((2S)-2-hydroxy-3-(8-(naphthalen-2-ylsulfonyl)-1-oxa-8-azaspiro[4.5]decan-3-ylamino)propoxy)-N-methoxybenzenesulfonamide] here?
A: Its IC50 is 15.1 nM.

Q: How did the IC50 turn out when CNS(=O)(=O)c1cccc(OC[C@@H](O)CNC2COC3(CCN(S(=O)(=O)c4cccc(-c5cn[nH]c5)c4)CC3)C2)c1 (stereo partly drawn) [Compound 64, 3-((2S)-3-(8-(3-(1H-pyrazol-4-yl)phenylsulfonyl)-1-oxa-8-azaspiro[4.5]decan-3-ylamino)-2-hydroxypropoxy)-N-methylbenzenesulfonamide] was run?
A: Its IC50 is 11.1 nM.

Q: Which IC50 does the source give for CNS(=O)(=O)c1cccc(OC[C@@H](O)CN[C@@H]2COC3(CCN(S(=O)(=O)c4cnn(-c5ccccc5)c4C)CC3)C2)c1 [Compound 280, 3-((S)-2-hydroxy-3-((S)-8-(5-methyl-1-phenyl-1H-pyrazol-4-ylsulfonyl)-1-oxa-8-azaspiro[4.5]decan-3-ylamino)propoxy)-N-methylbenzenesulfonamide] here?
A: Its IC50 is 98 nM.

Q: CNS(=O)(=O)c1cccc(OC[C@@H](O)CNC2COC3(CCN(S(=O)(=O)c4cccc(OC)c4)CC3)C2)c1 (stereo partly drawn) [Compound 27, 3-((2S)-2-hydroxy-3-(8-(3-methoxyphenylsulfonyl)-1-oxa-8-azaspiro[4.5]decan-3-ylamino)propoxy)-N-methylbenzenesulfonamide] was tested. Which IC50 did it give?
A: The IC50 was 13.8 nM.

Q: How did the IC50 turn out when CNS(=O)(=O)c1cccc(OC[C@@H](O)CNC2COC3(CCN(S(=O)(=O)c4cccc(-c5ccccn5)c4)CC3)C2)c1 (stereo partly drawn) [Compound 102, 3-((2S)-2-hydroxy-3-(8-(3-(pyridin-2-yl)phenylsulfonyl)-1-oxa-8-azaspiro[4.5]decan-3-ylamino)propoxy)-N-methylbenzenesulfonamide] was run?
A: The IC50 was 26 nM.

Q: Which IC50 does the source give for CNS(=O)(=O)c1cccc(OC[C@@H](O)CNC2COC3(CCN(S(=O)(=O)c4cc(C)ccc4F)CC3)C2)c1 (stereo partly drawn) [Compound 150, 3-((2S)-3-(8-(2-fluoro-5-methylphenylsulfonyl)-1-oxa-8-azaspiro[4.5]decan-3-ylamino)-2-hydroxypropoxy)-N-methylbenzenesulfonamide] here?
A: The IC50 was 13.5 nM.

Q: Which IC50 does the source give for CNS(=O)(=O)c1cccc(OC[C@@H](O)CNC2COC3(CCN(S(=O)(=O)c4cccc(C(F)(F)F)c4)CC3)C2)c1 (stereo partly drawn) [Compound 38, 3-((2S)-2-hydroxy-3-(8-(3-(trifluoromethyl)phenylsulfonyl)-1-oxa-8-azaspiro[4.5]decan-3-ylamino)propoxy)-N-methylbenzenesulfonamide] here?
A: Its IC50 is 18.7 nM.

Q: How did the IC50 turn out when CNS(=O)(=O)c1cccc(OC[C@@H](O)CNC2COC3(CCN(S(=O)(=O)c4cccc(-c5ccsc5)c4)CC3)C2)c1 (stereo partly drawn) [Compound 66, 3-((2S)-2-hydroxy-3-(8-(3-(thiophen-3-yl)phenylsulfonyl)-1-oxa-8-azaspiro[4.5]decan-3-ylamino)propoxy)-N-methylbenzenesulfonamide] was run?
A: Its IC50 is 22.7 nM.

Q: For CNS(=O)(=O)c1cccc(OC[C@@H](O)CN[C@H]2COC3(CCN(S(=O)(=O)c4cnc5c(C)cccc5c4O)CC3)C2)c1 [Compound 528, 3-((S)-2-hydroxy-3-((R)-8-(4-hydroxy-8-methylquinolin-3-ylsulfonyl)-1-oxa-8-azaspiro[4.5]decan-3-ylamino)propoxy)-N-methylbenzenesulfonamide], which IC50 is on record?
A: The IC50 was 10.2 nM.

Q: With CNS(=O)(=O)c1cccc(OC[C@@H](O)CNC2COC3(CCN(S(=O)(=O)c4cc(Br)ccc4OCCN4CCCC4)CC3)C2)c1 (stereo partly drawn) [Compound 412, 3-((2S)-3-(8-(5-bromo-2-(2-(pyrrolidin-1-yl)ethoxy)phenylsulfonyl)-1-oxa-8-azaspiro[4.5]decan-3-ylamino)-2-hydroxypropoxy)-N-methylbenzenesulfonamide] as the molecule, how does the IC50 read?
A: Its IC50 is 49.6 nM.

Q: How did the IC50 turn out when CNS(=O)(=O)c1cccc(OC[C@@H](O)CNC2COC3(CCN(S(=O)(=O)c4ccc5nsnc5c4)CC3)C2)c1 (stereo partly drawn) [Compound 177, 3-((2S)-3-(8-(benzo[c][1,2,5]thiadiazol-5-ylsulfonyl)-1-oxa-8-azaspiro[4.5]decan-3-ylamino)-2-hydroxypropoxy)-N-methylbenzenesulfonamide] was run?
A: The IC50 was 11.9 nM.

Q: Which IC50 does the source give for CNS(=O)(=O)c1cccc(OC[C@@H](O)CN[C@H]2COC3(CCN(c4ccccn4)CC3)C2)c1 [Compound 561, 3-((S)-2-hydroxy-3-((R)-8-(pyridin-2-yl)-1-oxa-8-azaspiro[4.5]decan-3-ylamino)propoxy)-N-methylbenzenesulfonamide] here?
A: Its IC50 is 429 nM.

Q: With CNS(=O)(=O)c1cccc(OC[C@@H](O)CNC2COC3(CCN(S(=O)(=O)c4ccc5oncc5c4)CC3)C2)c1 (stereo partly drawn) [Compound 327, 3-((2S)-3-(8-(benzo[d]isoxazol-5-ylsulfonyl)-1-oxa-8-azaspiro[4.5]decan-3-ylamino)-2-hydroxypropoxy)-N-methylbenzenesulfonamide] as the molecule, how does the IC50 read?
A: The IC50 was 92.1 nM.

Q: With CNS(=O)(=O)c1cccc(OC[C@@H](O)CNC2COC3(CCN(S(=O)(=O)Cc4ccccc4)CC3)C2)c1 (stereo partly drawn) [Compound 172, 3-((2S)-3-(8-(benzylsulfonyl)-1-oxa-8-azaspiro[4.5]decan-3-ylamino)-2-hydroxypropoxy)-N-methylbenzenesulfonamide] as the molecule, how does the IC50 read?
A: The IC50 was 78.9 nM.

Q: Which IC50 does the source give for CNS(=O)(=O)c1cccc(OC[C@@H](O)CNC2COC3(CCN(S(=O)(=O)c4cc(Br)ccc4C)CC3)C2)c1 (stereo partly drawn) [Compound 237, 3-((2S)-3-(8-(5-bromo-2-methylphenylsulfonyl)-1-oxa-8-azaspiro[4.5]decan-3-ylamino)-2-hydroxypropoxy)-N-methylbenzenesulfonamide] here?
A: The IC50 was 42.8 nM.

Q: CNS(=O)(=O)c1cccc(OC[C@@H](O)CN[C@@H]2COC3(CCN(S(=O)(=O)c4cccc(-c5ccc(C6(N)CC6)cc5)c4)CC3)C2)c1 [Compound 446, 3-((S)-3-((S)-8-(4′-(1-aminocyclopropyl)biphenyl-3-ylsulfonyl)-1-oxa-8-azaspiro[4.5]decan-3-ylamino)-2-hydroxypropoxy)-N-methylbenzenesulfonamide] was tested. Which IC50 did it give?
A: The IC50 was 11.9 nM.

Q: With CCNS(=O)(=O)c1cccc(OC[C@@H](O)CNC2COC3(CCN(S(=O)(=O)c4cccc(-c5ccc(OCC#N)cc5)c4)CC3)C2)c1 (stereo partly drawn) [Compound 213, 3-((2S)-3-(8-(4′-(cyanomethoxy)biphenyl-3-ylsulfonyl)-1-oxa-8-azaspiro[4.5]decan-3-ylamino)-2-hydroxypropoxy)-N-ethylbenzenesulfonamide] as the molecule, how does the IC50 read?
A: The IC50 was 49.1 nM.

Q: How did the IC50 turn out when CNS(=O)(=O)c1cccc(OC[C@@H](O)CN[C@@H]2COC3(CCN(S(=O)(=O)c4cnc5ccccc5c4)CC3)C2)c1 [Compound 335, 3-((S)-2-hydroxy-3-((S)-8-(quinolin-3-ylsulfonyl)-1-oxa-8-azaspiro[4.5]decan-3-ylamino)propoxy)-N-methylbenzenesulfonamide] was run?
A: Its IC50 is 12.1 nM.

Q: Which IC50 does the source give for CNS(=O)(=O)c1cccc(OC[C@@H](O)CNC2COC3(CCN(S(=O)(=O)c4cnc(O)nc4)CC3)C2)c1 (stereo partly drawn) [Compound 425, 3-((2S)-2-hydroxy-3-(8-(2-hydroxypyrimidin-5-ylsulfonyl)-1-oxa-8-azaspiro[4.5]decan-3-ylamino)propoxy)-N-methylbenzenesulfonamide] here?
A: The IC50 was 216 nM.

Q: Which IC50 does the source give for CNS(=O)(=O)c1cccc(OC[C@@H](O)CN[C@H]2COC3(CCN(S(=O)(=O)c4cc5c(nc4OC)OCCN5C)CC3)C2)c1 [Compound 476, 3-((S)-2-hydroxy-3-((R)-8-(6-methoxy-1-methyl-2,3-dihydro-1H-pyrido[2,3-b][1,4]oxazin-7-ylsulfonyl)-1-oxa-8-azaspiro[4.5]decan-3-ylamino)propoxy)-N-methylbenzenesulfonamide] here?
A: Its IC50 is 38.9 nM.

Q: For CN(C)S(=O)(=O)c1cccc(OC[C@@H](O)CNC2COC3(CCN(S(=O)(=O)c4cccc(-c5ccc(OCC#N)cc5)c4)CC3)C2)c1 (stereo partly drawn) [Compound 276, 3-((2S)-3-(8-(4′-(cyanomethoxy)biphenyl-3-ylsulfonyl)-1-oxa-8-azaspiro[4.5]decan-3-ylamino)-2-hydroxypropoxy)-N,N-dimethylbenzenesulfonamide], which IC50 is on record?
A: Its IC50 is 200 nM.

Q: For CNS(=O)(=O)c1cccc(OC[C@@H](O)CN[C@H]2COC3(CCN(S(=O)(=O)c4ccc5ccccc5c4)CC3)C2)c1 [Compound 30, 3—((S)-2-hydroxy-3-((R)-8-(naphthalen-2-ylsulfonyl)-1-oxa-8-azaspiro[4.5]decan-3-ylamino)propoxy)-N-methylbenzenesulfonamide], which IC50 is on record?
A: The IC50 was 4.41 nM.
